# Source: US20130184337A1, “SODIUM ASCORBATE STIMULATION OF ELASTOGENESIS” (THE HOSPITAL FOR SICK CHILDREN, priority 2012, published 2013)
# Entries after “also recorded” stand apart in the source; their conditions may differ.
# What was measured:
# Format in all cases: cell-based, human
# [1] = system: reactive oxygen species (ROS); test: Intracellular ROS with CM-H2DCFDA probe (fluorescence microscope, flow cytophotometry); conditions: 100 μM, 2 hours
# Description: Quantification of Intracellular free radicals-reactive oxygen species (ROS)—To assess the levels of ROS, quadruplicate cultures of normal skin fibroblasts were exposed to 10 μM of ROS-sensitive CM-H2DCFDA fluorescent probe (Molecular Probes, Eugene, Oreg.) for 30 minutes. This probe passively diffuses into the cell interior and only upon oxidation is a fluorescent product released that can be visualized under a fluorescent microscope or captured by flow cytophotometry when excited at 480 nm. Fibroblasts were then maintained for 30 minutes in the presence or absence of 400 μM probenecid, then incubated either for 2 or 24 hours with and without 100 μM AA or 100 μM SA. At the end of these periods the images were captured using a fluorescent microscope under identical parameters of contrast and brightness. The ROS production was also assessed by flow cytophotometry (λ excitation 480 nm; λ emission 520 nm), using FACSCalibur, Beckton Dickinson Instrument.
# [2] = system: fibroblasts derived from dermal stretch marks; test: Collagen and elastic fiber deposition in stretch-mark fibroblast cultures; conditions: 200 μM, 24 hour-old cultures
# Description: Cell Cultures-Fibroblasts initially grew out from the explants of these full thickness skin biopsies and were maintained. The primary cultures of fat-derived fibroblasts obtained from Thermogenesis (Rancho Cordova, Calif.) were also tested. In all described experiments, 2-4 passages of both kinds of fibroblasts were used. In experiments aimed at assessing ECM production, cells were initially plated at a concentration of 100,000 cells/dish. […] Immuno-staining-All cultures maintained in the presence and absence of indicated reagents were either fixed in cold 100% methanol at -20° C. (for detection of elastin) or in 4% paraformaldehyde at room temperature (for detection of collagen I). The multiple parallel cultures were then incubated with 10 μg/ml of polyclonal antibody to tropoelastin (Elastin Products, Owensville, Mich.), or polyclonal antibody to collagen type I (Chemicon, Temecula, Calif.). Cultures were then incubated with the respective fluorescein-conjugated goat anti-rabbit, goat anti-mouse, or rabbit anti-goat secondary antibodies. Nuclei were counterstained with propidium iodide (Sigma, Sigma, St. Louis, Mo.). All of the cultures were then examined with a Nikon Eclipse […] microscope attached to a cooled CCD camera (QImaging, Retiga EX) and analyzed by the computer-generated morphometric analysis system (Image-Pro Plus software, Media Cybernetics, Silver Springs, Md.) as previously described. Quantitative Assays of Insoluble Elastin-Fibroblasts were grown to confluency in 35-mm culture dishes (100,000 cells/dish). Next, 2 μCi of [3H]-valine/ml (Amersham Biosciences Ltd. Oakville, Canada), were added to each dish along with or without the indicated treatments. At the end of each experiment, the levels of metabolically labeled NaOH-insoluble elastin present in individual cultures were assayed and normalized per their DNA content.
# tropoelastin mRNA = test: RT-PCR of tropoelastin mRNA normalized to GAPDH mRNA; conditions: 50-200 μM, 18 hours, medium with 5% FBS
# Description: One-Step RT-PCR Analysis—The confluent cultures of skin fibroblasts were treated with or without the reagents of interest for different periods of time as indicated in the figure legend. Total RNA was extracted using the RNeasy Mini Kit, and the one-step RT-PCR reactions were set up with the RT-PCR Kit, according to the manufacturer's (Qiagen, Mississauga, ON) instructions. The amounts of tropoelastin mRNA were always normalized to the amount of GAPDH mRNA.
# [3] = system: normal dermal fibroblasts; test: Elastic fiber deposition (immuno-staining morphometry, [3H]-valine insoluble elastin) in monolayer cultures
# Description: Cell Cultures—Fibroblasts initially grew out from the explants of these full thickness skin biopsies and were maintained. The primary cultures of fat-derived fibroblasts obtained from Thermogenesis (Rancho Cordova, Calif.) were also tested. In all described experiments, 2-4 passages of both kinds of fibroblasts were used. In experiments aimed at assessing ECM production, cells were initially plated at a concentration of 100,000 cells/dish.
# Immuno-staining—All cultures maintained in the presence and absence of indicated reagents were either fixed in cold 100% methanol at −20° C. (for detection of elastin) or in 4% paraformaldehyde at room temperature (for detection of collagen I). The multiple parallel cultures were then incubated with 10 μg/ml of polyclonal antibody to tropoelastin (Elastin Products, Owensville, Mich.), or polyclonal antibody to collagen type I (Chemicon, Temecula, Calif.). Cultures were then incubated with the respective fluorescein-conjugated goat anti-rabbit, goat anti-mouse, or rabbit anti-goat secondary antibodies. Nuclei were counterstained with propidium iodide (Sigma, Sigma, St. Louis, Mo.). All of the cultures were then examined with a Nikon Eclipse E1000 microscope attached to a cooled CCD camera (QImaging, Retiga EX) and analyzed by the computer-generated morphometric analysis system (Image-Pro Plus software, Media Cybernetics, Silver Springs, Md.) as previously described.
# Quantitative Assays of Insoluble Elastin—Fibroblasts were grown to confluency in 35-mm culture dishes (100,000 cells/dish). Next, 2 μCi of [3H]-valine/ml (Amersham Biosciences Ltd. Oakville, Canada), were added to each dish along with or without the indicated treatments. At the end of each experiment, the levels of metabolically labeled NaOH-insoluble elastin present in individual cultures were assayed and normalized per their DNA content.
# normal skin explants = test: Organ culture of skin explants (Movat pentachrome morphometry, insoluble elastin); conditions: 200 μM, 10-day-long daily treatment
# Description: Organ culture of skin explants—Fragments of normal skin, stretch-marked skin and dermal scars collected during […] 5% FBS, in the presence or absence of 200 μM SA alone or in combination with 200 μM DMOG as described in figure legends. The parallel quadruplicate explants from each experimental group were additionally maintained in the presence 2 μCi of [3H]-valine/ml and then subjected to the assay of insoluble elastin. The parallel explants from each experimental groups were also evaluated after pentachrome Movat's staining which allows for clear marking of elastic fibers. In each experimental group, 50 sections derived from quadruplicate explants were analyzed.
structure (smiles),measurement,setting,value
"O=C1O[C@H]([C@@H](O)CO)C([O-])=C1O.[Na+] [SA, (+)-sodium L-ascorbate]",levels of intracellular ROS,[1],significantly lower levels of ROS
same,production of collagen fibers,[2],significantly up-regulated
same,production of elastic fibers / elastogenesis,[2],significantly up-regulated
same,levels of tropoelastin-encoding mRNA,tropoelastin mRNA,significant and dose-dependent up-regulation
same,production of immuno-detectable elastic fibers,"[3]; 50 μM to 200 μM, 24-hour-old cultures, 5% FBS",significantly stimulated production of immuno-detectable elastic fibers; also recorded: upregulate production of elastic fibers
same,"elastin deposition, SA added to IGF-1",[3]; 100 μM SA added to 50 ng/ml IGF-1,significantly up-regulated the levels of elastin deposition
same,"elastogenesis, SA added to dexamethasone",[3]; 100 μM SA added to 1 μM dexamethasone,did not further enhance the increase in elastogenesis
same,elastogenesis / net deposition of new elastic fibers,"[3]; 100 μM alone, 24 hours, 5% FBS",remarkable up-regulation in the net deposition of new elastic fibers; also recorded: similarly strong elastogenic effects as treatment with 50 ng/ml of exogenous IGF-1; also recorded: upregulates elastogenesis only in cultures of dermal fibroblasts maintained in media containing 5% FBS
same,deposition of elastic fibers,"[3]; 400 μM, 24-hour-old cultures, 5% FBS",did not further stimulate deposition of elastic fibers
same,elastogenesis,"[3]; 800 μM, 24-hour-old cultures, 5% FBS",clear inhibition of elastogenesis; also recorded: inhibits elastogenesis
same,elastogenic effects in serum-free medium,"[3]; SA, 18-24 hour-old cultures, serum-free medium",could not be observed in cultures maintained in serum-free medium
same,deposition of new elastic fibers,normal skin explants,enhanced deposition of new elastic fibers
